These molecules were tested against T1, GLP-1R (Homo sapiens, UniProt P43220) (assay: EC20 GLP-1(9-36) PAM cAMP assay: dose response of compound in the presence of fixed concentration of GLP-1(9-36)). Details: dose response of compound in presence of fixed concentration of GLP-1(9-36), GLP-1R CRE-bla CHO-K1 cells, read-out: EC20 GLP-1(9-36) PAM EC50.
T1 construct: host or cells: GLP-1R CRE-bla CHO-K1 cells
Type: cell-based
Summary of the method: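 Positive allosteric modulation read as cAMP accumulation: compound titrations (12 points) combined with an EC20 level of GLP-1(9-36) on CHO-K1 GLP-1R CRE-bla cells, IBMX present, 30 min, 37 °C, pH 7.4 buffer. Luminescence converted to cAMP via standards; non-linear fit gave EC50 and Emax.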

T1 sequence (P43220 24-463): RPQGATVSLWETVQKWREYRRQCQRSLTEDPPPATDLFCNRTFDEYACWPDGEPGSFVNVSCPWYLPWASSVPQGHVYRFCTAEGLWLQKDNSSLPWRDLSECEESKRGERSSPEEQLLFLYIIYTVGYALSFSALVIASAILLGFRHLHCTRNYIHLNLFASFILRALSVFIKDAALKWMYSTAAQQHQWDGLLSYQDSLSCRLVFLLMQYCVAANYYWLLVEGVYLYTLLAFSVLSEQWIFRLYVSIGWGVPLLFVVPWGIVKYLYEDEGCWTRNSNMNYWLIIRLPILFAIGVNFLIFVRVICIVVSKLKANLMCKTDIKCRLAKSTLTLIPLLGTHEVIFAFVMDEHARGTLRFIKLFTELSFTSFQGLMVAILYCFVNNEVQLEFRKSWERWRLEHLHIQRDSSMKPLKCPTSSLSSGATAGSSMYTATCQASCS
T1 sequence (P01275 100-127 partner limits assumed): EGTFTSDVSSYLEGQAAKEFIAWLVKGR

Structure (SMILES)	EC50 [µM]
CCCCCCCOc1ccc(-c2cnc(-c3ccc(C[C@H](NC(=O)c4ccc(C(C)(C)C)s4)C(=O)N4CC(C(=O)O)C4)cc3)nc2)cc1 [Compound 635, (S)-1-(2-(5-(tert-butyl)thiophene-2-carboxamido)-3-(4-(5-(4-(heptyloxy)phenyl)pyrimidin-2-yl)phenyl)propanoyl)azetidine-3-carboxylic acid]	< 0.8
CCCCCCCOc1ccc(-c2cnc(-c3ccc(C[C@H](NC(=O)c4ccc(C(C)(C)C)s4)C(=O)NC(C(=O)O)C(C)c4ccccc4)cc3)nc2)cc1 (stereo partly drawn) [Compound 636]	< 0.8
CCCCCCCOc1ccc(-c2cnc(-c3ccc(C[C@H](NC(=O)c4ccc(C(C)(C)C)s4)C(=O)N[C@@H](Cn4cncn4)C(=O)O)cc3)nc2)cc1 [Compound 639]	< 0.8
CCCCCCCOc1ccc(-c2cnc(-c3ccc(C[C@H](NC(=O)c4ccc(C(C)(C)C)s4)C(=O)N4C[C@@H](C#N)C[C@H]4C(=O)O)cc3)nc2)cc1 [Compound 640]	< 0.8
CCCCCCCOc1ccc(-c2cnc(-c3ccc(C[C@H](NC(=O)c4ccc(C(C)(C)C)s4)C(=O)N4C[C@H](C#N)C[C@H]4C(=O)O)cc3)nc2)cc1 [Compound 641]	< 0.8
CCCCCCCOc1ccc(-c2cnc(-c3ccc(C[C@H](NC(=O)c4ccc(C(C)(C)C)s4)C(=O)N[C@H](C(=O)O)[C@H](C)O)cc3)nc2)cc1 [Compound 646]	< 0.8
CCCCCCCOc1ccc(-c2cnc(-c3ccc(C[C@H](NC(=O)c4ccc(C(C)(C)C)s4)C(=O)N[C@H](Cc4ccccc4)C(=O)O)cc3)nc2)cc1 [Compound 647]	< 0.8
CCCCCCCOc1ccc(-c2cnc(-c3ccc(C[C@H](NC(=O)c4ccc(C(C)(C)C)s4)C(=O)N[C@@H](Cc4ccccc4)C(=O)O)cc3)nc2)cc1 [Compound 648]	0.8 to 2.5
CCCCCCCOc1ccc(-c2cnc(-c3ccc(C[C@H](NC(=O)c4ccc(C(C)(C)C)s4)C(=O)N4CC(C(=O)NS(=O)(=O)CC(=O)O)C4)cc3)nc2)cc1 [Compound 649]	0.8 to 2.5
CCCCCCCOc1ccc(-c2cnc(-c3ccc(C[C@H](NC(=O)c4ccc(C(C)(C)C)s4)C(=O)N4CC(C(=O)NS(C)(=O)=O)C4)cc3)nc2)cc1 [Compound 650]	< 0.8
CCCCCCCOc1ccc(-c2cnc(-c3ccc(C[C@H](NC(=O)c4ccc(C(C)(C)C)s4)C(=O)NC(C(=O)O)[C@@H](O)c4ccccc4)cc3)nc2)cc1 (stereo partly drawn) [Compound 651]	< 0.8
CCCCCCCOc1ccc(-c2cnc(-c3ccc(C[C@H](NC(=O)c4ccc(C(C)(C)C)s4)C(=O)N[C@H](C(=O)O)[C@H](C)CC)cc3)nc2)cc1 [Compound 657]	0.8 to 2.5
CCCCCCCOc1ccc(-c2cnc(-c3ccc(C[C@H](NC(=O)c4ccc(C(C)(C)C)s4)C(=O)N[C@@H](C(=O)O)[C@H](C)CC)cc3)nc2)cc1 [Compound 658]	< 0.8
CCCCCCCOc1ccc(-c2cnc(-c3ccc(C[C@H](NC(=O)c4ccc(C(C)(C)C)s4)C(=O)N[C@@H](C(=O)O)[C@@H](C)O)cc3)nc2)cc1 [Compound 659]	< 0.8
CCCCCCCOc1ccc(-c2cnc(-c3ccc(C[C@H](NC(=O)c4ccc(C(C)(C)C)s4)C(=O)N[C@H](CC(=O)NC)C(=O)O)cc3)nc2)cc1 [Compound 663]	0.8 to 2.5
CCCCCCCOc1ccc(-c2cnc(-c3ccc(C[C@H](NC(=O)c4ccc(C(C)(C)C)s4)C(=O)N[C@@H](C(=O)O)[C@H](O)c4ccccc4)cc3)nc2)cc1 [Compound 666, (2R,3R)-2-((S)-2-(5-(tert-butyl)thiophene-2-carboxamido)-3-(4-(5-(4-(heptyloxy)phenyl)-pyrimidin-2-yl)phenyl)propanamido)-3-hydroxy-3-phenylpropanoic acid]	0.8 to 2.5
CCCCCCCOc1ccc(-c2cnc(-c3ccc(C[C@H](NC(=O)c4ccc(C(C)(C)C)s4)C(=O)N[C@@H](C(=O)O)[C@@H](O)c4ccccc4)cc3)nc2)cc1 [Compound 667, (2R,3S)-2-((S)-2-(5-(tert-butyl)thiophene-2-carboxamido)-3-(4-(5-(4-(heptyloxy)phenyl)pyrimidin-2-yl)phenyl)propanamido)-3-hydroxy-3-phenylpropanoic acid]	0.8 to 2.5
CCCCCCCOc1ccc(-c2cnc(-c3ccc(C[C@H](NC(=O)c4ccc(C(C)(C)C)s4)C(=O)N4CC[C@@H]4C(=O)O)cc3)nc2)cc1 [Compound 669]	0.8 to 2.5
CCCCCCCOc1ccc(-c2cnc(-c3ccc(C(NC(=O)c4ccc(C(C)(C)C)cc4)C(=O)O)cc3)nc2)cc1 (stereo not drawn) [Compound 670]	2.5 to 5
CCCCCCCOc1ccc2nc(-c3ccc(C[C@H](NC(=O)c4ccc(C(C)(C)C)cc4)C(=O)O)cc3)ccc2c1 [Compound 671, (S)-2-(4-(tert-butyl)benzamido)-3-(4-(6-(heptyloxy)quinolin-2-yl)phenyl)propanoic acid]	2.5 to 5
CC(C)(C)c1ccc(C(=O)N[C@@H](Cc2ccc(-c3ncc(N4CCC(C(C)(C)C)CC4)cn3)cc2)C(=O)NCCC(=O)O)cc1 [Compound 674]	5 to 10
CCCCCc1ccc(-c2cnc(-c3ccc(C[C@H](NC(=O)c4ccc(C(C)(C)C)cc4)C(=O)NCCC(=O)O)cc3)nc2)cc1 [Compound 676]	2.5 to 5
CCCCc1ccc(-c2cnc(-c3ccc(C[C@H](NC(=O)c4ccc(C(C)(C)C)cc4)C(=O)NCCC(=O)O)cc3)nc2)cc1 [Compound 677]	2.5 to 5
CCCCCCc1ccc(-c2cnc(-c3ccc(C[C@H](NC(=O)c4ccc(C(C)(C)C)cc4)C(=O)NCCC(=O)O)cc3)nc2)cc1 [Compound 678]	0.8 to 2.5
CC(C)(C)COc1ccc(-c2cnc(-c3ccc(C[C@H](NC(=O)c4ccc(C(C)(C)C)cc4)C(=O)NCCC(=O)O)cc3)nc2)cc1 [Compound 680]	5 to 10

More lines, now with the values ahead:

EC50 [µM]	Structure (SMILES)
0.8 to 2.5	CCCCCCCOc1ccc(-c2cnc(-c3ccc(C[C@H](NC(=O)c4ccc(C(C)(C)C)s4)C(=O)N4CCC(C)(C(=O)O)C4)cc3)nc2)cc1 (stereo partly drawn) [Compound 637]
2.5 to 5	CCCCCCCOc1ccc(-c2cnc(-c3ccc(C[C@H](NC(=O)c4ccc(C(C)(C)C)s4)C(=O)N4CC(C(=O)O)C(C)(C)C4)cc3)nc2)cc1 (stereo partly drawn) [Compound 638]
< 0.8	CCCCCCCOc1ccc(-c2cnc(-c3ccc(C[C@H](NC(=O)c4ccc(C(C)(C)C)s4)C(=O)N[C@H](C(=O)O)[C@H](O)c4ccccc4)cc3)nc2)cc1 [Compound 642]
< 0.8	CCCCCCCOc1ccc(-c2cnc(-c3ccc(C[C@H](NC(=O)c4ccc(C(C)(C)C)s4)C(=O)NC(C(=O)O)C(O)c4ccc(OC)cc4)cc3)nc2)cc1 (stereo partly drawn) [Compound 644]
< 0.8	CCCCCCCOc1ccc(-c2cnc(-c3ccc(C[C@H](NC(=O)c4ccc(C(C)(C)C)s4)C(=O)N[C@H](C(=O)O)[C@@H](C)O)cc3)nc2)cc1 [Compound 645]
< 0.8	CCCCCCCOc1ccc(-c2cnc(-c3ccc(C[C@H](NC(=O)c4ccc(C(C)(C)C)s4)C(=O)N4CCC(F)(C(=O)O)C4)cc3)nc2)cc1 (stereo partly drawn) [Compound 652]
< 0.8	CCCCCCCOc1ccc(-c2cnc(-c3ccc(C[C@H](NC(=O)c4ccc(C(C)(C)C)s4)C(=O)N4CC(C(=O)O)CCC4C)cc3)nc2)cc1 (stereo partly drawn) [Compound 653]
< 0.8	CCCCCCCOc1ccc(-c2cnc(-c3ccc(C[C@H](NC(=O)c4ccc(C(C)(C)C)s4)C(=O)N4CC(C(=O)NS(=O)(=O)CC(=O)OC)C4)cc3)nc2)cc1 [Compound 654, methyl (S)-2-(N-(1-(2-(5-(tert-butyl)thiophene-2-carboxamido)-3-(4-(5-(4-(heptyloxy)phenyl)pyrimidin-2-yl)phenyl)propanoyl)azetidine-3-carbonyl)sulfamoyl)acetate]
0.8 to 2.5	CCCCCCCOc1ccc(-c2cnc(-c3ccc(C[C@H](NC(=O)c4ccc(C(C)(C)C)s4)C(=O)NC(C(=O)O)C(O)c4ccc(S(C)(=O)=O)cc4)cc3)nc2)cc1 (stereo partly drawn) [Compound 655]
0.8 to 2.5	CCCCCCCOc1ccc(-c2cnc(-c3ccc(C[C@H](NC(=O)c4ccc(C(C)(C)C)s4)C(=O)N[C@@H](C(=O)O)[C@@H](C)CC)cc3)nc2)cc1 [Compound 656]
0.8 to 2.5	CCCCCCCOc1ccc(-c2cnc(-c3ccc(C[C@H](NC(=O)c4ccc(C(C)(C)C)cc4)C(=O)N4CCC[C@H]4C(=O)O)cc3)nc2)cc1 [Compound 660]
< 0.8	CCCCCCCOc1ccc(-c2cnc(-c3ccc(C[C@H](NC(=O)c4ccc(C(C)(C)C)cc4)C(=O)N4CCC(O)C(C(=O)O)C4)cc3)nc2)cc1 (stereo partly drawn) [Compound 661]
< 0.8	CCCCCCCOc1ccc(-c2cnc(-c3ccc(C[C@H](NC(=O)c4ccc(C(C)(C)C)cc4)C(=O)N4CC(O)CC(C(=O)O)C4)cc3)nc2)cc1 (stereo partly drawn) [Compound 662]
2.5 to 5	CCCCCCCOc1ccc(-c2cnc(-c3ccc(C[C@H](NC(=O)c4ccc(C(C)(C)C)s4)C(=O)N[C@@H](C(=O)O)[C@H](C)O)cc3)nc2)cc1 [Compound 664]
0.8 to 2.5	CCCCCCCOc1ccc(-c2cnc(-c3ccc(C[C@H](NC(=O)c4ccc(C(C)(C)C)s4)C(=O)N[C@H](C(=O)O)[C@@H](O)c4ccccc4)cc3)nc2)cc1 [Compound 665]
0.8 to 2.5	CCCCCCCOc1ccc(-c2cnc(-c3ccc(C[C@H](NC(=O)c4ccc(C(C)(C)C)s4)C(=O)N4CC[C@H]4C(=O)O)cc3)nc2)cc1 [Compound 668]
2.5 to 5	CCCCCCCOc1ccc2cc(-c3ccc(C[C@H](NC(=O)c4ccc(C(C)(C)C)cc4)C(=O)O)cc3)ncc2c1 [Compound 672, (S)-2-(4-(tert-butyl)benzamido)-3-(4-(7-(heptyloxy)isoquinolin-3-yl)phenyl)propanoic acid]
5 to 10	CCCCCCCOc1ccc2nc(-c3ccc(C[C@H](NC(=O)c4ccc(C(C)(C)C)cc4)C(=O)O)cc3)ncc2c1 [Compound 673, (S)-2-(4-(tert-butyl)benzamido)-3-(4-(6-(heptyloxy)quinazolin-2-yl)phenyl)propanoic acid]
5 to 10	CC(C)(C)c1ccc(C(=O)N[C@@H](Cc2ccc(-c3ncc(-c4ccc(C(C)(C)C)cc4)cn3)cc2)C(=O)NCCC(=O)O)cc1 [Compound 675]
0.8 to 2.5	CCCCCCCc1ccc(-c2cnc(-c3ccc(C[C@H](NC(=O)c4ccc(C(C)(C)C)cc4)C(=O)NCCC(=O)O)cc3)nc2)cc1 [Compound 679]

From patent US10034886B2, “GLP-1 receptor modulators” (Celgene International II SÀRL, priority 2014, dated 2018)
